This assay deals with sensitized bronchial muscle. Description: Antiallergic action: inhibition of egg albumin-induced contraction of sensitized guinea pig bronchial muscle. The assay is classed as tissue-based, guinea pigs of Hartley strain. The note with it: Cavia porcellus; for inhibition at 10 µM: 10^-5 M; for inhibition at 1 µM: 10^-6 M; for inhibition at 0.1 µM: 10^-7 M; for inhibition at 0.01 µM: 10^-8 M. The method, then:
Male guinea pigs of Hartley strain (body weight: about 250 g) were intraperitoneally or intramuscularly dosed with egg albumin (dose 100 mg/kg) and the same procedure was repeated after 3 days. After 3 to 4 weeks, the guinea pi-as were bled to death and the sensitized bronchial muscle was excised and cut into 1.5 mm thick rings. Three rings were joined to prepare a specimen. The specimen was suspended in a tissue bath and a load of 1 g was applied. […] After stabilization of the specimen (after about 1 hour), histamine hydrochloride was added to the bath at a final concentration of 10^-5 M. The contraction curve was recorded. After the contraction had been stabilized, the specimen was washed with 3 portions of Ringer's solution at 10-minute intervals to stabilize the contraction (about 1 hour was required). Then, the test compound was added to the tissue bath and, after an interval of 10 minutes, 5 mg/ml of egg albumin was added. The contraction amplitude of the specimen was measured and the percent inhibition was calculated according to the following formula. [formula] A: Contraction amplitude of control group when egg albumin is added A': Contraction amplitude of dosage group when egg albumin is added
H: Contraction amplitude of control group when histamine hydrochloride is added
H': Contraction amplitude of dosage group when histamine hydrochloride is added

From patent US5284850A, “Terpene amino alcohols and medicinal uses thereof” (Kuraray Co., Ltd., priority 1985, dated 1994) come the findings set out here.

In general, inhibition refers to the change of the read-out against control, counted positive when it falls. Take `CCN(CC)CC(O)C(C)(O)CCCC(C)CCCC(C)CCCC(C)C` (stereo not drawn) [(33)]: the inhibition at 10 µM was 47.9% and the inhibition at 1 µM came out at 32.6%.

With `CC(C)=CCCC(C)(O)C(N)CO` (stereo not drawn) [Compound (50), 2-amino-3,7-dimethyl-6-octene-1,3-diol], the inhibition at 10 µM came to 55%, the inhibition at 1 µM turned out to be 20% and the inhibition at 0.1 µM came out at 0%.

Take `CC(C)CCCC(C)CCCC(C)(O)C(CO)NCCO` (stereo not drawn) [Compound (67)]: the inhibition at 10 µM is 46%, the inhibition at 1 µM came to 49% and the inhibition at 0.1 µM amounted to 18%.

Regarding `CC(C)=CCCC(C)(O)C(CO)N1CCOCC1` (stereo not drawn) [Compound (56)], the inhibition at 10 µM stood at 27%, the inhibition at 1 µM came to 44%, the inhibition at 0.1 µM stood at 16% and the inhibition at 0.01 µM was 0%.

For the molecule `CCCCN(CCCC)CC(O)C(C)(O)CCCC(C)C` (stereo not drawn) [Compound (9)], the inhibition at 10 µM came out at 27.9%, the inhibition at 1 µM turned out to be 67.2%, the inhibition at 0.1 µM was 56% and the inhibition at 0.01 µM stood at 16%.

Consider `CNCC(O)C(C)CCCC(C)CCCC(C)C` (stereo not drawn) [Compound (28), 1-methylamino-3,7,11-trimethyl-2-dodecanol], for which the inhibition at 10 µM turned out to be 66%, the inhibition at 1 µM is 49% and the inhibition at 0.1 µM was 35%.

For the molecule `CC(C)CCCC(C)(O)C(CO)N(C)CCO` (stereo not drawn) [Compound (60), 2-[(2-hydroxyethyl)methylamino]-3,7-dimethyl-1,3-octanediol], the inhibition at 10 µM was 35%, the inhibition at 1 µM stood at 11% and the inhibition at 0.1 µM is 0%.

`CC(C)CCCC(C)CCCC(C)(O)C(CO)N(C)C(=O)c1cccnc1` (stereo not drawn) [Compound (66), N-methyl-N-(1,3-dihydroxy-3,7,11-trimethyldodecan-2-yl)nicotinamide]: the inhibition at 10 µM came out at 77%, the inhibition at 1 µM was 72% and the inhibition at 0.1 µM was determined as 81%.

On to `CC(C)CCCC(C)CCCC(C)(O)C(O)CN1CCOCC1` (stereo not drawn) [Compound (17), 3,7,11-trimethyl-l-morpholino-2,3-dodecanediol], for which the inhibition at 10 µM is 45%, the inhibition at 1 µM amounted to 68% and the inhibition at 0.1 µM came to 29%.

`CNCC(O)C(C)(O)CCCC(C)CCCC(C)CCCC(C)C` (stereo not drawn) [(31)]: the inhibition at 10 µM is 10.9%.

Turning to `CC(C)CCCC(C)CCCC(C)(O)C(O)CNc1cccc2ncccc12` (stereo not drawn) [Compound (23)], the inhibition at 1 µM was found to be 76%, the inhibition at 0.1 µM came out at 55% and the inhibition at 0.01 µM was 27%.

Consider `CC(C)CCCC(C)CCCC(C)CCCC(C)(O)C(CO)N(C)C` (stereo not drawn) [Compound (72)], for which the inhibition at 10 µM was determined as 51%, the inhibition at 1 µM came to 60%, the inhibition at 0.1 µM was determined as 24% and the inhibition at 0.01 µM was determined as 9%.

As for `CNCC(O)C(C)(O)CCC=C(C)C` (stereo not drawn) [Compound (44)], the inhibition at 10 µM was 63% and the inhibition at 1 µM stood at 54%.

Turning to `CNCC(O)C(C)(O)CCCC(C)C` (stereo not drawn) [Compound (8)], the inhibition at 10 µM was 37.8%. The inhibition at 100 µM (10^-4 M) was 52.6%.

Regarding `CC(C)CCCC(C)CCCC(C)(O)C(C)N` (stereo not drawn) [Compound (61)], the inhibition at 10 µM is 70%, the inhibition at 1 µM is 48% and the inhibition at 0.1 µM turned out to be 24%.

Consider `CC(C)CCCC(C)(O)C(O)CNCCO` (stereo not drawn) [Compound (10)], for which the inhibition at 10 µM was found to be 81.2% and the inhibition at 1 µM amounted to 23.8%.

For the molecule `CC(C)CCCC(C)CCCC(C)(O)C(CO)n1ccnc1` (stereo not drawn) [Compound (64)], the inhibition at 0.1 µM was found to be 63%.

For `CC(C)CCCC(C)CCCC(C)(O)C(CO)NCCCN1CCOCC1` (stereo not drawn) [Compound (69)], the inhibition at 1 µM was 65% and the inhibition at 0.1 µM stood at 52%.

`COc1ccc(CN2CCN(C(CO)C(C)(O)CCCC(C)CCCC(C)C)CC2)c(OC)c1OC` (stereo not drawn) [Compound (65)]: the inhibition at 10 µM stood at 73%, the inhibition at 1 µM was 54% and the inhibition at 0.1 µM came to 37%.
